{
  "source": "paper PMC6383986",
  "about": "“Fragment-Based Covalent Ligand Screening Enables Rapid Discovery of Inhibitors for the RBR E3 Ubiquitin Ligase HOIP” (Journal of the American Chemical Society, 2019)",
  "target": "T1, 3 × FLAG-tagged HOIP RBR domain in HEK293T cells (Homo sapiens, UniProt Q96EP0)",
  "T1 construct": "expressed in transfected cells; host or cells: HEK293T, transient, modified pcDNA3.1(+)",
  "T1 sequence (Q96EP0 697-1072)": "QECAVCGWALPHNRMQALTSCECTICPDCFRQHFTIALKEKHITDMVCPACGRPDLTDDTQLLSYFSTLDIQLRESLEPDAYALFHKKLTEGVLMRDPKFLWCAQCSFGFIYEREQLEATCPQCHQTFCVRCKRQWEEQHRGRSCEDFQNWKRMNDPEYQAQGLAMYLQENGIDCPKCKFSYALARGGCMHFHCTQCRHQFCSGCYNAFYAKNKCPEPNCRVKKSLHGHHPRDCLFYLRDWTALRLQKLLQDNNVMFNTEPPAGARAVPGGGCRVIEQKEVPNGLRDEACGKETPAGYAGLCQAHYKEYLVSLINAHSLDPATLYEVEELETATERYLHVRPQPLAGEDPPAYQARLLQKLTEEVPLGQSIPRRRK",
  "test": "In-cell labeling, FLAG-IP, tryptic digest and LC-MS/MS",
  "format": "cell-based",
  "conditions": "30 μM, 8 h",
  "protocol": "Transfection and compound treatment\nAt approximately 40% confluency, as judged by visual inspection by microscope, cells were transfected by mixing Optimem (Gibco) with the relevant pcDNA3.1 construct (3 µg; 3×FLAG HOIP RBR, 3×FLAG HOIP RBR C885A or mock) and FuGENE transfection reagent (9 µL, vortexed prior to use; Promega) respectively. The solutions were mixed thoroughly and incubated at room temperature for 15 min, then added dropwise and the media was swirled gently to ensure homogenous mixing. The cells were incubated at 37 °C (Binder) for 48 h. Fresh DMEM media supplemented with 1% v/v FBS (Biosera) and 1% v/v L-glutamine/penicillin/streptomycin (Sigma-Aldrich) was aliquoted into 15 mL Falcon tubes (typically 8 mL/tube). […]\nThe lysates were clarified by centrifugation (Heraeus Fresco 17) at 17 000 × g, 4 °C for 20 min and the pellet discarded. The protein concentration was determined using the BCA assay (see […]\nThe protein concentrations of the clarified lysates were normalized with reaction buffer (50 mM Tris-HCl, pH 7.5, 1.5 mM MgCl2, 150 mM NaCl, 1 mM Na3VO4, complete protease inhibitor) to 1.0 mg/mL (final volume 400 µL, and <0.1% IGEPAL-CA630). […] One set of beads were denatured in 2× LDS loading buffer and analyzed by SDS PAGE and Western blot (FLAG antibody, Supplementary Figure S12) as described in […]",
  "note": "“Also recorded” adds a separate entry of the source.",
  "data": [
    {"smiles": "COC(=O)/C=C/CNC(=O)c1cc2c([nH]c1=O)CCCC2", "note": "[Compound 11a]", "values": [
      {"measurement": "in-cell labeling of HOIP RBR at C885", "result": "significantly labeled; also recorded: significant labeling"}
    ]}
  ]
}
